How the values were obtained:
[1] = target: T1, human 5-HT1A receptor (Homo sapiens, UniProt P08908); assay: Affinity measurement of the compounds to human 5-HT1A receptor (in vitro), [3H]8-OH-DPAT binding; conditions: test compound 100 nmols/L; [3H]8-OH-DPAT 0.25 nmols/L; CHO cell membrane expressing human 5-HT1A receptor; read-out: Percent Inhibition (%) on Each Receptor's Binding at 10^−7M, 5-HT1A
T1 construct: purchased Packard Bioscience; host or cells: CHO cells (membrane preparation)
T1 sequence (P08908 1-422): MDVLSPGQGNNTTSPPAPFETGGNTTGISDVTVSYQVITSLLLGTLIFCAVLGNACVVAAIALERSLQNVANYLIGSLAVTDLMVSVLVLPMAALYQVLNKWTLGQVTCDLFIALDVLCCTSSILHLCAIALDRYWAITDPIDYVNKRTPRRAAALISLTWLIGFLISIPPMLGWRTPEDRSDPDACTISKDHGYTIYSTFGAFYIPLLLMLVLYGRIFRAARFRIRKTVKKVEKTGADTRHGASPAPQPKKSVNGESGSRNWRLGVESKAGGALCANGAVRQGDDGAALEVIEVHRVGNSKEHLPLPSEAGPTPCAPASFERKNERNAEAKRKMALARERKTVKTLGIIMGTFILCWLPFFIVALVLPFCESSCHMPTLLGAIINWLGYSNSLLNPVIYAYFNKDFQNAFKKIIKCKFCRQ
Summary of the method: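 Membranes from CHO cells expressing human 5-HT1A were incubated 60 min at 27 °C with 0.25 nmol/L [3H]8-OH-DPAT and compound in Tris/MgSO4/EDTA/ascorbate buffer, pH 7.4. Bound radioactivity was collected on PEI-soaked GF/C filters and counted; percent inhibition was corrected for non-specific binding defined with 10 μmol/L 8-OH-DPAT.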

[2] = target: T2, 5-HT1A receptor (Rattus norvegicus, UniProt P19327); assay: Measurement of 5-HT1A receptor agonistic action on rats (in vivo): lower lip retraction and flat body posture; conditions: SD male rats, 10 mg/kg intraperitoneal; maximum of group evaluation points, 4 grades 0-3, observed 5-30 min after administration
T2 construct: from tissue; host or cells: whole animal (SD male rats), behavioural read-out
T2 sequence (P19327 1-422): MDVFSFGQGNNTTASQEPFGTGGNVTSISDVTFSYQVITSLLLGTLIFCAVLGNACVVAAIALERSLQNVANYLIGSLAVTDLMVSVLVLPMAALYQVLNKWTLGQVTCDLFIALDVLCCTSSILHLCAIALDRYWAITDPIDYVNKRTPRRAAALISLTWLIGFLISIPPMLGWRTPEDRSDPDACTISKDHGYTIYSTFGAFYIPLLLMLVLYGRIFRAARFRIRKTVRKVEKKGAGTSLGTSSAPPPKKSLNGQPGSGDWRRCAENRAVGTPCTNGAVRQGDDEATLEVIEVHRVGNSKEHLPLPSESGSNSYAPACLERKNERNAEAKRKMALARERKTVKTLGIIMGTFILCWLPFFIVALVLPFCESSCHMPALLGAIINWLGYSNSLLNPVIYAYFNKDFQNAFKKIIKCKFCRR
Protocol: (3) Measurement of 5-HT1A Receptor Agonistic Action on Rats (in Vivo):
Seven weeks old SD male rats were divided into 4-5 rats per group which were accustomized to the experimental environments twice. A week after the second accustomization, the rats were put into a transparent plastic case, and 10 mg/kg of a test compound (as dissolved in 1N-hydrochloric acid and diluted with suitable amount of saline) was intraperitoneally administered thereto. Immediately before the administration and 5, 10, 20 and 30 minutes after the administration, behaviors of the rats were observed as to lower lip retraction (LLP) and flat body posture (FBP). The results were evaluated in 4 grades (0: no reaction, 1: feeble reaction, 2: medium reaction, 3: maximum reaction).

[3] = system: rats under restraint stress; assay: Measurement of defecation acceleration in rats under restraint stress; type: in vivo, rat; conditions: 1 hour restraint stress, group average (Normal 1.7, Control 6.8)
Protocol: (5) Measurement of Defecation Acceleration in Rats under Restraint Stress […] Feed and drinking water were left for their free ingestion until the morning of the day on which the test was given. On the day of the experiment, test compounds were orally administered and positive control solution (the used compounds were dissolved in 1N-hydrochloric acid and diluted with a suitable amount of saline) was administered intraperitoneally. Five (5) minutes thereafter, under lightly anesthetized condition, the rats were placed under restraint stress, with their upper half of the bodies including the front feet immobilized with gum tape. The restraint stress loading was conducted for an hour, and the number of excrements discharged during that period was counted. […] Those compounds which were used as the positive control chemicals used in the acceleration of defecation in rats under restraint stress are identified with the following structures.

Row | SMILES | inhibition at 0.1 µM [1] | 5-HT1A Receptor Agonistic Action on Rats, FBP [2] | 5-HT1A Receptor Agonistic Action on Rats, LLR [2] | Number of excrements ([3]; 1 mg/kg oral administration) | Number of excrements ([3]; 3 mg/kg oral administration) | Number of excrements ([3]; 10 mg/kg oral administration)
1 | c1cc2ccoc2c(N2CCN3CCC[C@H]3C2)n1 [Production Example 102, 7-((8aS)-octahydropyrrolo[1,2-a]pyrazin-2-yl)furo[2,3-c]-pyridine] | 95.4% | 3.0 | 3.0 |  |  | 
2 | Cc1ccc2ccnc(N3CCN(C)CC3)c2c1 [Production Example 47, 7-methyl-1-(4-methylpiperazin-1-yl)isoquinoline] | 90.6% |  |  |  |  | 
3 | CCn1c(CCCCN2CCN(c3ccc4ccccc4n3)CC2)nc2c(c1=O)CCCC2 [Example 7-2, 3-2-[4-(4-quinolin-2-ylpiperazin-1-yl)butyl]-5,6,7,8-tetrahydro-3H-quinazolin-4-one] | 93.3% | 0.4 | 0.2 |  |  | 
4 | COc1ccc2ccnc(N3CCNC(C)C3)c2c1 (centres unmarked) [Production Example 38, 7-methoxy-1-(3-methylpiperazin-1-yl)isoquinoline] | 94.8% |  |  |  |  | 
5 | Cc1cc(N2CCN(CCCCc3nc4ccccc4c(=O)n3N)CC2)nc2ccccc12 [Example 4-4, 3-amino-2-[4-[4-(4-methylquinolin-2-yl)piperazin-1-yl]butyl]-3H-quinazolin-4-one] | 98.7% | 2.6 | 2.8 |  |  | 
6 | CCn1c(CCCCN2CCN(c3cc(C)c4ccccc4n3)CC2)nc2c(c1=O)CCCC2 [Example 7-7, 3-ethyl-2-[4-[4-(4-methylquinolin-2-yl)piperazin-1-yl]butyl]-5,6,7,8-tetrahydro-3H-quinazolin-4-one] | 96.9% | 2.2 | 2.2 |  |  | 
7 | COc1ccc2ccnc(N3CCN4CCC[C@H]4C3)c2c1 [Production Example 72, 1-((8aS)-octahydropyrrolo[1,2-a]pyrazin-2-yl)-7-methoxyisoquinoline] | 96.7% | 3.0 | 3.0 |  |  | 
8 | CN1CCN(c2nccc3sccc23)CC1 [Production Example 8, 4-(4-methylpiperazin-1-yl)thieno[3,2-c]pyridine] | 78.3% | 0.8 | 2.0 |  |  | 
9 | Cc1cc(N2CCN(CCCCc3nc4c(c(=O)n3C)CCCC4)CC2)nc2ccccc12 [Example 7-6, 3-methyl-2-[4-[4-(4-methylquinolin-2-yl)piperazin-1-yl]butyl]-5,6,7,8-tetrahydro-3H-quinazolin-4-one] | 97.4% | 2.0 | 2.4 | 5.4 | 4.0 | 2.9
10 | CN1CCN(c2nccc3ccsc23)CC1 [Production Example 6, 7-(4-methylpiperazin-1-yl)thieno[2,3-c]pyridine] | 90.1% | 2.4 | 2.8 |  |  | 
11 | Nn1c(CCCCN2CCN(c3ccc4ccccc4n3)CC2)nc2ccccc2c1=O [Example 4-3, 3-amino-2-[4-(4-quinolin-2-ylpiperazin-1-yl)butyl]-3H-quinazolin-4-one] | 98.2% | 1.8 | 1.8 |  |  | 
12 | c1cc2sccc2c(N2CCN3CCC[C@H]3C2)n1 [Production Example 104, 4-((8aS)-octahydropyrrolo[1,2-a]pyrazin-2-yl)thieno[3,2-c]pyridine] | 85.5% | 0.2 | 1.6 |  |  | 
13 | Nn1c(CCCCN2CCN(c3ccc4ccccc4n3)CC2)nc2ccsc2c1=O [Example 4-18, 3-amino-2-[4-(4-quinolin-2-ylpiperazin-1-yl)butyl]-3H-thieno[3,2-d]-pyrimidin-4-one] | 98% | 2.8 | 2.2 |  |  | 
14 | Nn1c(CCCCN2CCN(c3ccc4ccccc4n3)CC2)nc2cccc(Cl)c2c1=O [Example 4-25, 3-amino-5-chloro-2-[4-(4-quinolin-2-ylpiperazin-1-yl)butyl]-3H-quinazolin-4-one] | 99.4% | 1.0 | 0.8 |  |  | 
15 | Clc1ccc2ccnc(N3CCN4CCC[C@H]4C3)c2c1 [Production Example 73, 7-chloro-1-((8aS)-octahydropyrrolo[1,2-a]pyrazin-2-yl)isoquinoline] | 98.3% | 2.2 | 2.4 |  |  | 
16 | Cc1cc2c(N3CCN4CCC[C@H]4C3)nccc2s1 [Production Example 107, 4-((8aS)-octahydropyrrolo[1,2-a]pyrazin-2-yl)-2-methylthieno[3,2-c]-pyridine] | 98.5% | 3.0 | 2.8 |  |  | 
17 | c1cc2ccsc2c(N2CCN3CCC[C@H]3C2)n1 [Production Example 103, 7-((8aS)-octahydropyrrolo[1,2-a]pyrazin-2-yl)thieno[2,3-c]pyridine] | 91.4% | 0.4 | 3.0 |  |  | 
18 | c1cc2ccsc2c(N2CCN3CCC[C@@H]3C2)n1 [Production Example 108, 7-((8aR)-octahydropyrrolo[1,2-a]pyrazin-2-yl)thieno[2,3-c]pyridine] | 90.6% | 0.4 | 2.4 |  |  | 
19 | Clc1ccc2ccnc(N3CCNCC3)c2c1 [Production Example 49, 7-chloro-1-piperazin-1-ylisoquinoline] | 88.7% | 1.8 | 2.2 |  |  | 

From US7799775B2, “Pyrimidine derivatives” (ASKA Pharmaceutical Co., Ltd., priority 2004, dated 2010)
